Test results reported in patent US7319029B2, “Lipase from Geobacillus sp. strain T1” (Universiti Purta Malaysia, priority 2004, dated 2008).
Where a SMILES comes first, the peptide text is derived from it. [ ]: non-standard residue; d: D form. The star is where a group is joined. Sta = CC(C)C[C@H](N)[C@@H](O)CC(=O)O; Isovaleryl = CC(C)CC(=O)*

Legend:
T1 mature lipase [1] = assay: Effect of metal ions, surfactants and inhibitors on lipase activity; format: biochemical, Geobacillus sp. strain T1; conditions: for Effect of metal ion on lipase activity: 1 mM, after 30 min of treatment; for Effect of metal ion on lipase activity / Inhibition of lipase activity / Effect of inhibitor on lipase activity: 50° C.; for Inhibition of lipase activity: metal ion 1 mM, after 30 min; for Effect of inhibitor on lipase activity: 5 mM (Pepstatin 1 mM), 30 min; for Effect of surfactant on lipase activity: 0.1%
Method: The T1 lipase was tested at temperatures ranging from 40° C. to 80° C. at 5° C. intervals for 30 min for enzyme activity. The thermostability test was conducted at various temperatures for different hours. Recombinant T1 lipase was also kept at a wide range of pH values ranging from pH 4-12 for pH activity and stability determination. The buffer systems used were 50 mM acetate buffer (pH 4-6), potassium phosphate buffer (pH 6-8), Tris-HCl buffer (pH 8-9), glycine-NaOH buffer (pH 9-11), and Na2HPO3/NaOH buffer (pH 11-12). The effect of effectors (metal ions, surfactants) and inhibitors were studied at a concentration of 1 mM and 5 mM, respectively at 50° C. for 30 min with an exceptional for pepstatin (1.0 mM).
The effect of metal ion at final concentration of 1 mM was tested by treatment at 50° C. for 30 min. […] The effect of surfactants on lipase activity on lipase activity was studied at concentration of 0.1% (FIG. 6).
The effect of inhibitors on lipase activity on several metal chelating agent, reducing agents, serine and aspartate inhibitors were used to study the inhibition effect to T1 mature lipase.

T1 mature lipase [2] = assay: as above; format: biochemical, Geobacillus sp. strain T1; conditions: 1 mM, 50° C., after 15 min of treatment
P1 lipase = conditions: 10 mM of PMSF; cited from earlier work

Compound	Effect of metal ion on lipase activity (T1 mature lipase [1])	Effect of inhibitor on lipase activity (T1 mature lipase [1])	also measured
[Ca+2] [Ca^2+]	stabilizing effect		
[Cu+2] [Cu^2+]			Inhibition of lipase activity (T1 mature lipase [1]): 52%
O[C@@H](CS)[C@@H](O)CS [DTT]		little inhibition effect	
O=C(O)CN(CCN(CC(=O)O)CC(=O)O)CC(=O)O [EDTA]		slightly effect	
[Fe+2] [Fe^2+]			Inhibition of lipase activity (T1 mature lipase [1]): 60%
[K+] [K^+]	stabilizing effect		Effect of metal ion on lipase activity (T1 mature lipase [2]): slightly enhanced
[Mg+2] [Mg^2+]	stabilizing effect		
[Mn+2] [Mn^2+]	stabilizing effect		Effect of metal ion on lipase activity (T1 mature lipase [2]): slightly enhanced
[Na+] [Na^+]			Effect of metal ion on lipase activity (T1 mature lipase [2]): slightly enhanced
O=S(=O)(F)Cc1ccccc1 [PMSF]		strongly inhibited	Inhibition of P1 lipase (P1 lipase): 77%
CC(C)CC(=O)N[C@H](C(=O)N[C@H](C(=O)N[C@@H](CC(C)C)[C@@H](O)CC(=O)N[C@@H](C)C(=O)N[C@@H](CC(C)C)[C@@H](O)CC(=O)O)C(C)C)C(C)C [Pepstatin] (Isovaleryl-VV[Sta]A[Sta]-OH)		strongly inhibited	
[Zn+2] [Zn^2+]	stabilizing effect		
OCCS [β-mercaptoethanol]		little inhibition effect	
Tween			Effect of surfactant on lipase activity (T1 mature lipase [1]): obvious enhancement; Effect of surfactant on lipase activity (T1 mature lipase [1]; listed as Tween 20-80): enhancement effect
